According to patent publication US20160206637A1, “Effects of Alpha-Glycerophosphocholine Versus Caffeine in Measures of Cognitive, Psychological and Physiological Functions” (priority 2015, published 2016):

Columns and labels:
[1] = test system: recreationally active participants; test: Vertical jump test, peak power (Tendo Unit); format: in vivo, human; details: 30 minutes after supplementation
Experimental: Participants were scored by the total number of successful catches. Following the non-fatiguing tests, the participants performed a standardized warm-up in which they walked on a treadmill for 5 minutes at 3 miles per hour. Following the warm-up, participants performed the fatiguing tests which included vertical jump, broad jump, 40 yard dash, and the pro-agility shuttle. […] Participants then performed three attempts for the standing broad jump. Maximum broad jump distance was recorded. Lastly, participants performed one 40 yard dash and one pro-agility shuttle (5-10-5 drill) on an indoor, wooden gymnasium floor. Times was measured by hand and recorded.
(§1) Upon arrival to the Human Performance Laboratory at Angelo State University on each of the 4 testing sessions, participants were provided with a sample of the supplement. Participants were assigned to consume a placebo, 200 mg of caffeine, 200 mg of α-GPC, and 400 mg of α-GPC in a randomized, double-blind, placebo controlled, cross-over manner. After consuming the supplement, participants waited 30 minutes before completing the testing protocol. All participants were advised that they should not have had anything to eat or drink, except for water, in the previous 8 hours. Additionally, participants were asked to refrain from consuming any food or beverages that contain caffeine or other stimulants for at least 24 hours prior to completing the testing sessions.
(§2) Twenty participants (10 males, 10 females; 22.0±3.4 years of age; height 171.9±7.4 cm; weight 56.8±8.6 kg) consumed 200 mg of αGPC (αGPC-L, Alpha-Size®, Chemi Nutra, Austin, Tex. USA), 400 mg of Alpha-GPC (αGPC-H), 200 mg of caffeine (CA), and a placebo (PL) in a randomized, double-blind, placebo-controlled, crossover design. Participants performed the following measurements 30 minutes after supplementation: visual analog scales (VAS) for six different moods, a serial subtraction test (SST), and tests for reaction time, hand-eye coordination, power, speed and agility.

[2] = test system: healthy, college-aged males; test: Upper body isometric test (UBIST) peak force; format: in vivo, human; details: 600 mg daily
Experimental: The Institutional Review Board at the University of Louisiana at Lafayette reviewed the present investigation for ethics. The study was a double-blind, placebo-controlled crossover with a 1-week washout period that included 13 healthy, college-aged males (Means±SD; Age: 21.9±2.2 years, Height: 180.3±7.7 cm; Weight: 87.6±15.6 kg, VO2 max: 40.08±7.23 ml O2*kg^−1; body fat: 17.5±4.6%). Subjects reported to the lab and give informed consent, which included consent to publish, prior to baseline assessments, which included height and weight, an assessment of maximum aerobic capacity via a COSMED CPET system (COSMED, Rome ITL) with integrated electronically braked cycle ergometer as outlined in previous studies incorporated herein by reference (5) and body fat percentage via air displacement plethysmography (Bod Pod Gold Standard System, COSMED Rome, ITL). The following week trial one (random order: either placebo or 600 mg of αGPC) began. For the trials baseline performance testing was done and they were given an initial dose (placebo or α-GPC) while in the lab, 1 h later the performance testing (isometric mid-thigh pull, upper body isometric test) was repeated. The subjects were then given 6 days of additional pre-packaged supplement to take (morning and evening). The subjects reported back on day 6 of this period to repeat performance testing after the final dose of supplement. After a 1-week washout period, the subjects repeated the trial with the other treatment (see FIG. 4). […]
The participants were positioned on three elevated platforms with the chest directly suspended over a load cell anchored into the concrete floor of the lab (iLoad Pro, Loadstar Sensors, Fremont Calif.). […] The participants were placed in a push-up style position, with the hands at 150% of biacromial width, and the elbows at 90° of extension (measured via a goniometer). […] The load cell was set to capture data at maximum rate (150 Hz) and the data was exported and analyzed in JMP 11.0 (SAS Institute Inc, Ca1y NC). […]
(§3) Reliability was assessed for the isometric tests via Intra Class Correlation Coefficients (ICC). […]

[3] = test system: healthy, college-aged males; test: Isometric mid-thigh pull (IMTP) peak force; format: in vivo, human
Experimental: The Institutional Review Board at the University of Louisiana at Lafayette reviewed the present investigation for ethics. The study was a double-blind, placebo-controlled crossover with a 1-week washout period that included 13 healthy, college-aged males (Means±SD; Age: 21.9±2.2 years, Height: 180.3±7.7 cm; Weight: 87.6±15.6 kg, VO2 max: 40.08±7.23 ml O2*kg^−1; body fat: 17.5±4.6%). Subjects reported to the lab and give informed consent, which included consent to publish, prior to baseline assessments, which included height and weight, an assessment of maximum aerobic capacity via a COSMED CPET system (COSMED, Rome ITL) with integrated electronically braked cycle ergometer as outlined in previous studies incorporated herein by reference (5) and body fat percentage via air displacement plethysmography (Bod Pod Gold Standard System, COSMED Rome, ITL). The following week trial one (random order: either placebo or 600 mg of αGPC) began. For the trials baseline performance testing was done and they were given an initial dose (placebo or α-GPC) while in the lab, 1 h later the performance testing (isometric mid-thigh pull, upper body isometric test) was repeated. The subjects were then given 6 days of additional pre-packaged supplement to take (morning and evening). The subjects reported back on day 6 of this period to repeat performance testing after the final dose of supplement. After a 1-week washout period, the subjects repeated the trial with the other treatment (see FIG. 4).
The treatments consisted of 600 mg daily of α-GPC (Alphasize®, ChemiNutra, Austin Tex.) or a placebo. Both treatments were administered in the same capsules (gel caps) and were the same color (white). The α-GPC capsules were supplied with a certificate of analysis from a third party lab confirming the amount of active ingredient. The placebo capsule consisted of microcrystalline cellulose and magnesium stearate (Nature's Supplements, Carlsbad, Calif. USA). Both the participant and researcher were unaware of the identity of either treatment until the end of the study. […]
The isometric mid-thigh pull test (IMTP) is a well validated strength measure (Beckman, G, et al. “Relationship of isometric mid-thigh pull variables to weightlifting performance.” J. Sports Med. Phys Fitness 2010; 35:573-81). […] The height of the bar was adjusted so that the participant was in a position where the torso was upright (assessed via a contractors box level), the knees achieved between 120-130° of flexion (measured via a goniometer) and the arms were straight while holding the bar. […] The peak force was assessed at a sampling rate of 2000 Hz using an AMT1 Force Plate. […]
as §3

[4] = test system: recreationally active participants; test: Serial subtraction test (SST) of cognitive function; format: in vivo, human; details: 30 minutes after supplementation; for SST score (average time per correct calculation): 200 mg oral, crossover, 20 participants
Text: Following supplementation, participants performed all non-fatiguing tests first.

[5] = test system: recreationally active participants; test: Visual analog scale (VAS) for jitteriness; details: 200 mg caffeine; compared to αGPC-H (400 mg), but not αGPC-L or PL; 30 minutes after supplementation
Experimental: as §1, §2

Molecule	Vertical Jump Peak Power ([1]; 200 mg oral)	Vertical Jump Peak Power higher in comparison to PL ([1]; 200 mg oral) [%]	Vertical Jump Peak Power ([1]; 400 mg oral (αGPC-H))	Vertical Jump Peak Power higher in comparison to PL ([1]; 400 mg oral (αGPC-H)) [%]	magnitude based inference: likely beneficial for increasing upper body isometric force ([2]; 6 days) [%]	UBIST force production, change from baseline ([2]; baseline to day 6) [N]	UBIST effect size (ES, Cohen's d), treatment by time ([2]; day 6, vs placebo)	magnitude based inference: likely beneficial for increasing lower body isometric force production ([3]; 600 mg daily, 6 days) [%]	IMTP effect size (ES, Cohen's d), treatment by time ([3]; 600 mg daily, day 6, vs placebo)	IMTP performance, acute treatment effect (repeated measures Anova) ([3]; 1 h after the initial dose, vs placebo)	increase in lower body isometric strength ([3]; 6 days of supplementation, 600 mg daily) [%]	SST score (average time per correct calculation) [4] [s]	SST scores faster compared to CA ([4]; 200 mg αGPC (αGPC-L) vs 200 mg caffeine) [%]	SST scores faster compared to PL ([4]; 200 mg αGPC (αGPC-L) vs placebo) [%]	scores on the VAS for jitteriness [5]
α-Glycerophosphocholine [αGPC]	2,041.3±547.2 W	8.5	2,023.1±942.8 W	7.5	68.3	50.9±167.2	0.714	86.5	0.961	did not reveal any main effects	> 3	6.19 ± 2.21	18.1	10.5	
Cn1c(=O)c2c(ncn2C)n(C)c1=O [CA, caffeine]	1,920.4±689.6 W	2.0										7.32 ± 5.67			significantly higher
